Source: patent publication US5116974A, “3-carbalkoxyamino-5-aminoacyl-5H-dibenz[b,f]azepines, and methods for making” (Arzneimittelwerk Dresden GmbH, priority 1989, dated 1992)

Assays:
[1] = tested on: dogs, 24 hours after a 2-step coronary ligature; test: 2-step coronary ligature in dogs (Harris model); type: in vivo, dog
Text: It is also emphasized that, in comparative investigations of the 2-step coronary ligature in dogs (Harris model), the new compounds of formula I have an advantageously sustained duration of action (see Table 1).

in vivo = settings: rat, iv, male or female Wistar rats, i.v. tail vein, Probit regression, confidence interval p=0.05 in parentheses, read-out: LD50 i.v. (acute tox., rat)
Text: LD50 i.v. =lethal dose in mg/kg for 50% of the experimental animals of an orientating acute toxicity test on male or female Wistar rats of our own breed, i.v. administration in the tail vein, 3-4 dosages, 10 animals per group. Data analyzed by the Probit regression analysis with a confidence interval of p=0.05 (values given in parentheses).

[2] = tested on: aconitine arrhythmia in female Wistar rats; type: in vivo, rat (female Wistar); settings: for ED73 i.v. (aconitine, rat): dose which inhibits aconitine arrhythmia up to the occurrence of isolated ventricular extrasystoles: female Wistar rats, Probit regression, confidence interval p=0.05 in parentheses; for Q = LD50 i.v./ED73 i.v. (therapeutic breadth): rat, ratio of LD50 to ED73 (aconitine model)
Description: ED73 i.v. =the dose in mg/kg, which inhibits aconitine arrhythmia in female Wistar rats after i.v. administration of the test substance up to the occurrence of isolated ventricular extrasystolea (K. Femmer et al., Pharmazie 31, page 36 (1976). The data is analyzed by the Probit regression analysis with a confidence interval of p=0.05 (values given in parentheses).

Solubility = type: physicochemical

## CCNCC(=O)N1c2ccccc2CCc2ccc(NC(=O)OCC)cc21 [No. 3]
[1]; at eff. dose 1.0 mg/kg i.v.
  duration of action (dog, Harris): 60 min
[1]; at eff. dose 2.0 mg/kg i.v.
  duration of action (dog, Harris): 180 min
In vivo
  LD50: 9.6 mg/kg
[2]
  ED73 i.v. (aconitine, rat): dose which inhibits aconitine arrhythmia up to the occurrence of isolated ventricular extrasystoles: 0.09 mg/kg
  Q = LD50 i.v./ED73 i.v. (therapeutic breadth): 107

## CCNCC(=O)N1c2ccccc2CCc2ccc(NC(=O)OC)cc21 [No. 17]
[1]; at eff. dose 2.0 mg/kg i.v.
  duration of action (dog, Harris): 15 min
In vivo
  LD50: 19 mg/kg
[2]
  ED73 i.v. (aconitine, rat): dose which inhibits aconitine arrhythmia up to the occurrence of isolated ventricular extrasystoles: 0.95 mg/kg
  Q = LD50 i.v./ED73 i.v. (therapeutic breadth): 20

## CCOC(=O)Nc1ccc2c(c1)N(C(=O)CNCc1ccccc1)c1ccccc1CC2 [No. 1, 3-carbethoxyamino-b 5-benzylaminoacetyl-10,11-dihydro-5H-dibenz[b,f]azepine]
In vivo
  LD50: 13 mg/kg
Solubility
  solubility of the base in dilute acids (in words): not very soluble in dilute acids
[2]
  ED73 i.v. (aconitine, rat): dose which inhibits aconitine arrhythmia up to the occurrence of isolated ventricular extrasystoles: 0.79 (0.53-1.2) mg/kg
  Q = LD50 i.v./ED73 i.v. (therapeutic breadth): 16

## COC(=O)Nc1ccc2c(c1)N(C(=O)CNCCO)c1ccccc1CC2 [No. 16]
In vivo
  LD50: 36 mg/kg
[2]
  ED73 i.v. (aconitine, rat): dose which inhibits aconitine arrhythmia up to the occurrence of isolated ventricular extrasystoles: 0.40 mg/kg
  Q = LD50 i.v./ED73 i.v. (therapeutic breadth): 90

## CCOC(=O)Nc1ccc2c(c1)N(C(=O)CN(C)C)c1ccccc1CC2 [Bonnecor ®, 3-carbethoxyamino-5-dimethylaminoacetyl-10,11-dihydro-5H-dibenz[b,f]azepine, reference compound]
[1]; at eff. dose 2.0 mg/kg i.v.
  duration of action (dog, Harris): 15 min
In vivo
  LD50: 11 mg/kg
[2]
  ED73 i.v. (aconitine, rat): dose which inhibits aconitine arrhythmia up to the occurrence of isolated ventricular extrasystoles: 0.28 mg/kg
  Q = LD50 i.v./ED73 i.v. (therapeutic breadth): 39

## CCOC(=O)Nc1ccc2c(c1)N(C(=O)CCNCCO)c1ccccc1CC2 [No. 18]
[1]; at eff. dose 2.0 mg/kg i.v.
  duration of action (dog, Harris): 60 min
In vivo
  LD50: 20 mg/kg
[2]
  ED73 i.v. (aconitine, rat): dose which inhibits aconitine arrhythmia up to the occurrence of isolated ventricular extrasystoles: 0.85 mg/kg
  Q = LD50 i.v./ED73 i.v. (therapeutic breadth): 24

## CCOC(=O)Nc1ccc2c(c1)N(C(=O)CNCCO)c1ccccc1CC2 [No. 2, 3-carbethoxyamino-5-(beta-oxyethylamino)acetyl-10,11-dihydro-5H-dibenz[b,f]azepine]
[1]; at eff. dose 2.0 mg/kg i.v.
  duration of action (dog, Harris): 60 min
In vivo
  LD50: 12 mg/kg
[2]
  ED73 i.v. (aconitine, rat): dose which inhibits aconitine arrhythmia up to the occurrence of isolated ventricular extrasystoles: 0.19 mg/kg
  Q = LD50 i.v./ED73 i.v. (therapeutic breadth): 63

## CCNCC(=O)N1c2ccccc2CCc2ccc(NC(=O)OC(C)C)cc21 [No. 13, 3-carbisopropoxyamino-5-ethylamino-acetyl-10,11-dihydro-5H-dibenz[b,f]azepine]
In vivo
  LD50: 16 mg/kg
[2]
  ED73 i.v. (aconitine, rat): dose which inhibits aconitine arrhythmia up to the occurrence of isolated ventricular extrasystoles: 0.47 mg/kg
  Q = LD50 i.v./ED73 i.v. (therapeutic breadth): 34

## CCOC(=O)Nc1ccc2c(c1)N(C(=O)CCN1CCOCC1)c1ccccc1S2 [Morazicine, morazicine, reference compound]
[1]; at eff. dose 2.0 mg/kg i.v.
  duration of action (dog, Harris): 15 min
In vivo
  LD50: 11 mg/kg
[2]
  ED73 i.v. (aconitine, rat): dose which inhibits aconitine arrhythmia up to the occurrence of isolated ventricular extrasystoles: 1.1 mg/kg
  Q = LD50 i.v./ED73 i.v. (therapeutic breadth): 10

## CCOC(=O)Nc1ccc2c(c1)N(C(=O)CN)c1ccccc1CC2 [No. 10, 3-carbethoxyamino-5-amino-acetyl-10,11-dihydro-5H-dibenz[b,f]azepine]
In vivo
  LD50: 14 mg/kg
[2]
  ED73 i.v. (aconitine, rat): dose which inhibits aconitine arrhythmia up to the occurrence of isolated ventricular extrasystoles: 0.20 mg/kg
  Q = LD50 i.v./ED73 i.v. (therapeutic breadth): 70

## CCNCC(=O)N1c2ccccc2C=Cc2ccc(NC(=O)OCC)cc21 [No. 20, 3-carbethoxyamino-5-ethylamino-acetyl-acetyl-5H-dibenz[b,f]azepine]
In vivo
  LD50: 6.2 mg/kg
[2]
  ED73 i.v. (aconitine, rat): dose which inhibits aconitine arrhythmia up to the occurrence of isolated ventricular extrasystoles: 0.40 mg/kg
  Q = LD50 i.v./ED73 i.v. (therapeutic breadth): 15

## CC(C)OC(=O)Nc1ccc2c(c1)N(C(=O)CNC(C)(C)C)c1ccccc1CC2 [No. 14]
[2]
  ED73 i.v. (aconitine, rat): dose which inhibits aconitine arrhythmia up to the occurrence of isolated ventricular extrasystoles: 0.18 mg/kg

## CCOC(=O)Nc1ccc2c(c1)N(C(=O)CNC)c1ccccc1C=C2 [No. 19]
In vivo
  LD50: 11 mg/kg
[2]
  ED73 i.v. (aconitine, rat): dose which inhibits aconitine arrhythmia up to the occurrence of isolated ventricular extrasystoles: 0.32 mg/kg
  Q = LD50 i.v./ED73 i.v. (therapeutic breadth): 34

## CC(C)OC(=O)Nc1ccc2c(c1)N(C(=O)CNCCO)c1ccccc1CC2 [No. 12]
In vivo
  LD50: 20 mg/kg
[2]
  ED73 i.v. (aconitine, rat): dose which inhibits aconitine arrhythmia up to the occurrence of isolated ventricular extrasystoles: 0.51 mg/kg
  Q = LD50 i.v./ED73 i.v. (therapeutic breadth): 39

## CCOC(=O)Nc1ccc2c(c1)N(C(=O)CNC(C)(C)C)c1ccccc1CC2 [No. 6, 3-carbethoxyamino-5-tertiary-butylamino-acetyl-10,11-dihydro-5H-dibenz[b,f]azepine]
In vivo
  LD50: 5.6 mg/kg
[2]
  ED73 i.v. (aconitine, rat): dose which inhibits aconitine arrhythmia up to the occurrence of isolated ventricular extrasystoles: 0.35 mg/kg
  Q = LD50 i.v./ED73 i.v. (therapeutic breadth): 16

## CCCCCCNCC(=O)N1c2ccccc2CCc2ccc(NC(=O)OCC)cc21 [No. 9]
In vivo
  LD50: 14 mg/kg
[2]
  ED73 i.v. (aconitine, rat): dose which inhibits aconitine arrhythmia up to the occurrence of isolated ventricular extrasystoles: 0.90 mg/kg
  Q = LD50 i.v./ED73 i.v. (therapeutic breadth): 16

## CCCNCC(=O)N1c2ccccc2CCc2ccc(NC(=O)OCC)cc21 [No. 5, 3-carbethoxyamino-5-n-propylamino-acetyl-10,11-dihydro-5H-dibenz[b,f]azepine]
In vivo
  LD50: 6.1 mg/kg
[2]
  ED73 i.v. (aconitine, rat): dose which inhibits aconitine arrhythmia up to the occurrence of isolated ventricular extrasystoles: 0.18 mg/kg
  Q = LD50 i.v./ED73 i.v. (therapeutic breadth): 34

## CNCC(=O)N1c2ccccc2CCc2ccc(NC(=O)OC)cc21 [No. 15]
[1]; at eff. dose 2.0 mg/kg i.v.
  duration of action (dog, Harris): 15 min
In vivo
  LD50: 20 mg/kg
[2]
  ED73 i.v. (aconitine, rat): dose which inhibits aconitine arrhythmia up to the occurrence of isolated ventricular extrasystoles: 0.30 mg/kg
  Q = LD50 i.v./ED73 i.v. (therapeutic breadth): 67

## CCNCCC(=O)N1c2ccccc2CCc2ccc(NC(=O)OCC)cc21 [No. 21, 3-carbethoxyamino-5-(β-ethylaminopropionyl)-10,11-dihydro-5H-dibenz[b,f]azepine]
In vivo
  LD50: 12 mg/kg
[2]
  ED73 i.v. (aconitine, rat): dose which inhibits aconitine arrhythmia up to the occurrence of isolated ventricular extrasystoles: 0.42 mg/kg
  Q = LD50 i.v./ED73 i.v. (therapeutic breadth): 29

## CCN(CC)CC(=O)Nc1c(C)cccc1C [Lidocaine, lidocaine, reference compound]
[1]; at eff. dose 6.0 mg/kg i.v.
  duration of action (dog, Harris): 10 min

## CNCC(=O)N1c2ccccc2CCc2ccc(NC(=O)OC(C)C)cc21 [No. 11]
In vivo
  LD50: 15 mg/kg
[2]
  ED73 i.v. (aconitine, rat): dose which inhibits aconitine arrhythmia up to the occurrence of isolated ventricular extrasystoles: 0.61 mg/kg
  Q = LD50 i.v./ED73 i.v. (therapeutic breadth): 25

## CCOC(=O)Nc1ccc2c(c1)N(C(=O)CNC(C)c1ccccc1)c1ccccc1CC2 (stereo not drawn) [No. 22, 3-carbethoxyamino-5-(α-phenylethylamino)-acetyl-10,11-dihydro-5H-dibenz[b,f]azepine]
In vivo
  LD50: 31 mg/kg
[2]
  ED73 i.v. (aconitine, rat): dose which inhibits aconitine arrhythmia up to the occurrence of isolated ventricular extrasystoles: 3.5 mg/kg
  Q = LD50 i.v./ED73 i.v. (therapeutic breadth): 9

## CCCCNCC(=O)N1c2ccccc2CCc2ccc(NC(=O)OCC)cc21 [No. 7, 3-carbethoxyamino-5-n-butylamino-acetyl-10,11-dihydro-5H-dibenz[b,f]azepin]
In vivo
  LD50: 5 mg/kg
[2]
  ED73 i.v. (aconitine, rat): dose which inhibits aconitine arrhythmia up to the occurrence of isolated ventricular extrasystoles: 0.29 mg/kg
  Q = LD50 i.v./ED73 i.v. (therapeutic breadth): 17

## CCOC(=O)Nc1ccc2c(c1)N(C(=O)CNC(C)C)c1ccccc1CC2 [No. 4, 3-carbethoxyamino-5-isopropylamino-acetyl-10,11-dihydro-5H-dibenz[b,f]azepine]
In vivo
  LD50: 8.2 mg/kg
[2]
  ED73 i.v. (aconitine, rat): dose which inhibits aconitine arrhythmia up to the occurrence of isolated ventricular extrasystoles: 0.71 mg/kg
  Q = LD50 i.v./ED73 i.v. (therapeutic breadth): 12

## CCOC(=O)Nc1ccc2c(c1)N(C(=O)CNC1CCCCC1)c1ccccc1CC2 [No. 8, 3-carbethoxyamino-5-cyclohexylamino-acetyl-10,11-dihydro-5H-dibenz[b,f]azepine]
In vivo
  LD50: 3.7 mg/kg
[2]
  ED73 i.v. (aconitine, rat): dose which inhibits aconitine arrhythmia up to the occurrence of isolated ventricular extrasystoles: 0.25 mg/kg
  Q = LD50 i.v./ED73 i.v. (therapeutic breadth): 15

## Cc1cccc(C)c1OCC(C)N (stereo not shown) [Mexiletin, mexiletin, reference compound]
In vivo
  LD50: 41 mg/kg
[2]
  ED73 i.v. (aconitine, rat): dose which inhibits aconitine arrhythmia up to the occurrence of isolated ventricular extrasystoles: 15 mg/kg
